From patent US20250092065A1, “2-(INDAZOL-5-YL)-6-(PIPERIDIN-4-YL)-1,7-NAPHTHYRIDINE DERIVATIVES AND RELATED COMPOUNDS AS MODULATORS FOR SPLICING NUCLEIC ACIDS AND FOR THE TREATMENT OF PROLIFERATIVE DISEASES” (REMIX THERAPEUTICS INC., priority 2022, published 2025)
Read-outs that look alike come from different tables or passages of the source.

What was measured:
HTT = assay: HiBiT protein abundance assay, HTT (K562 HiBiT knock-in); format: cell-based, human; details: HiBiT knock-in K562 cells, 24 hours, top dose 10 μM
Description: (§1) Compounds described herein were used to screen for effects on quantitative protein abundance using a HiBit assay system (Promega). Quantitative protein abundance was determined by measuring the protein levels of HiBit-tagged protein targets expressed in cell culture via luminescence using the Nano-Glo HiBiT Lytic Detection System, which uses a split complementation assay format to reconstitute NanoBiT enzyme to generate a luminescent signal. A protein abundance assay was developed such that endogenous protein targets could be modified with the HiBiT peptide tag and their abundance could be assessed after compound treatment. Briefly, K562 cell lines containing a HiBiT-modification were treated with various compounds described herein (e.g., compounds of Formulas (I), or (II)). After treatment for 24 hours, the protein abundance of a specific target was determined by measuring luminescence.
(§2) Cells were maintained in IMIDM with 10% FBS. Before the assay, cells were diluted with […] growth media (IMIDM+[…] media) and were seeded in a 384-well plate at a density of 10000 cells/well (for each cell line listed in Table 6). Each compound was prepared as a 10-point 3-fold serial dilution in DMSO with the top dose at a final concentration of 10 μM in the well. Unmodified K562 cells were added at the previously specified density with DMSO to serve as an assay baseline and positive control (PC) and DMSO only with the respective modified cell lines was added to the negative control (NC) columns. Final DMSO concentration was kept at or below 0.25%. Treated cell plates were placed in an incubator at 37° C. with […] for 24 hours. After 24 hours, 25 μL of Complete HiBit Lytic reagent was added to each well at room temperature (e.g. one plate requiring 10 mL Lytic Buffer, 100 μL LgBiT Protein, 200 μL Lytic Substrate), shaken for 5 minutes at 600 RPM, then left to sit for 10 minutes for signal to stabilize before reading on a Spark Cyto plate reader (Tecan) with a 500 ms measurement time.
(§3) To determine compound effects on protein abundance of each target in Table 6, the percent response for each respective cell line was calculated at each compound concentration as follows:
(§4) % response=100*(S−PC)(NC−PC)
(§5) For the normalized response at each concentration, a four-parameter logistical regression was fit to the data and the response was interpolated at the […] to determine a concentration for protein abundance at 50% (IC50) the untreated control.

MYB mRNA = assay: RT-qPCR splicing assay, MYB mRNA canonical (CJ) and alternative (AJ) junction; format: cell-based, human; details: Homo sapiens; for AC50: MYB alternative junction mRNA, read-out: MYB AJ (increase in AJ mRNA, AC50)
In short: (§6)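 Both isoforms, CJ and AJ, read by qPCR from crude lysates of treated A673 or K562 cells; 24 h, 37 °C, maximum 10 uM. Normalization: housekeeper ΔCt, then DMSO ΔΔCt.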

SMN2 mRNA = assay: RT-qPCR splicing assay, SMN2 mRNA; format: cell-based, human; details: Homo sapiens, canonical junction qPCR panel, Table 4; read-out: SMN2 IC50 (decrease in CJ mRNA levels)
In short: as §6

MYB = assay: HiBiT protein abundance assay, MYB (K562 HiBiT knock-in); format: cell-based, human; details: HiBiT knock-in K562 cells, 24 hours, top dose 10 μM
Description: as §1, §2, §3, §4, §5

HTT mRNA = assay: RT-qPCR splicing assay, HTT mRNA canonical (CJ) and alternative (AJ) junction; format: cell-based, human; details: Homo sapiens; for AC50: HTT alternative junction mRNA, read-out: HTT AJ (increase in AJ mRNA, AC50)
In short: as §6

K562 cells = assay: Cell Titer Glo 2.0 cell viability (toxicity) assay, K562; details: 500 cells/well, 72 hours
Target C = assay: HiBiT protein abundance assay, Target C (K562 HiBiT knock-in); format: cell-based, human; details: HiBiT knock-in K562 cells, 24 hours, top dose 10 μM
Description: as §2, §3, §4, §5

[1] = MYB canonical junction mRNA, RT-qPCR, read-out: MYB CJ (decrease in CJ mRNA levels, IC50)
[2] = canonical junction qPCR panel, Table 4, read-out: MYB IC50 (decrease in CJ mRNA levels)
[3] = HTT canonical junction mRNA, RT-qPCR, read-out: HTT CJ (decrease in CJ mRNA levels, IC50)
[4] = canonical junction qPCR panel, Table 4, read-out: HTT IC50 (decrease in CJ mRNA levels)

Row | Structure (SMILES) | IC50 (HTT) [nM] | AC50 (MYB mRNA; RT-qPCR) [nM] | IC50 (MYB mRNA; [1]) [nM] | IC50 (MYB mRNA; [2]) [nM] | IC50 (SMN2 mRNA) [nM] | IC50 (MYB) [nM] | AC50 (HTT mRNA; RT-qPCR) [nM] | IC50 (HTT mRNA; [3]) [nM] | IC50 (HTT mRNA; [4]) [nM] | Effect of Exemplary Compounds on Cell Viability, K562 (K562 cells) | IC50 (Target C) [nM]
1 | CC1CN(c2ccc3nc(-c4cc5cn(C)nc5cc4O)ccc3n2)CCN1C (stereo not shown) [Compound 118] | 1000 to 10000 | 1000 to 10000 | 100 to 1000 | 100 to 1000 | < 100 | 100 to 1000 | 1000 to 10000 | 1000 to 10000 | 1000 to 10000 | C (C represents 1000-9999 nM) | > 10000
2 | CCC1CN(c2ccc3nc(-c4cc5cn(C)nc5cc4O)ccc3n2)CCN1 (stereo not shown) [Compound 119] | 100 to 1000 | 100 to 1000 | 100 to 1000 | 100 to 1000 | < 100 | 100 to 1000 | 1000 to 10000 | 100 to 1000 | 100 to 1000 | B (B represents 100-1000 nM) | 100 to 1000
3 | Cn1cc2cc(-c3ccc4nc(N5CCNC(C)(C)C5)ccc4n3)c(O)cc2n1 [Compound 120] | 1000 to 10000 | 100 to 1000 | 100 to 1000 | 100 to 1000 | < 100 | 1000 to 10000 | 1000 to 10000 | 1000 to 10000 | 1000 to 10000 | B (B represents 100-1000 nM) | 1000 to 10000
4 | Cn1cc2cc(-c3ccc4nc(N5CCNC6(CC6)C5)ccc4n3)c(O)cc2n1 [Compound 121] | 1000 to 10000 | 100 to 1000 | 100 to 1000 | 100 to 1000 | 1000 to 10000 | 1000 to 10000 | 1000 to 10000 | 1000 to 10000 | 1000 to 10000 | C (C represents 1000-9999 nM) | 1000 to 10000
5 | Cn1cc2cc(-c3ccc4nc(N5CC6(CNC6)C5)ccc4n3)c(O)cc2n1 [Compound 124] | < 100 | 100 to 1000 | 100 to 1000 | 100 to 1000 | < 100 | 100 to 1000 | 100 to 1000 | < 100 | < 100 | B (B represents 100-1000 nM) | < 100
6 | Cn1cc2cc(-c3ccc4nc(N5CCC(N6CCCC6)C5)ccc4n3)c(O)cc2n1 (stereo not shown) [Compound 125] | 100 to 1000 | < 100 | 100 to 1000 | 100 to 1000 | < 100 | 100 to 1000 | 100 to 1000 | 100 to 1000 | 100 to 1000 | B (B represents 100-1000 nM) | 100 to 1000
7 | Cn1cc2cc(-c3ccc4nc(N5CCC(NC(C)(C)C)C5)ccc4n3)c(O)cc2n1 (stereo not shown) [Compound 127] | < 100 | < 100 | < 100 | < 100 | < 100 | < 100 | < 100 | < 100 | < 100 | B (B represents 100-1000 nM) | < 100
8 | CN(C)C1CCN(c2ccc3nc(-c4cc5cn(C)nc5cc4O)ccc3n2)C1 (stereo not shown) [Compound 129] | 100 to 1000 | 100 to 1000 | 100 to 1000 | 100 to 1000 | < 100 | 100 to 1000 | 100 to 1000 | 100 to 1000 | 100 to 1000 | B (B represents 100-1000 nM) | 100 to 1000
9 | CCNC1CCN(c2ccc3nc(-c4cc5cn(C)nc5cc4O)ccc3n2)CC1 [Compound 131] | 1000 to 10000 | 1000 to 10000 | 1000 to 10000 | 1000 to 10000 | < 100 | 1000 to 10000 | > 10000 | 1000 to 10000 | 1000 to 10000 | B (B represents 100-1000 nM) | 1000 to 10000
10 | Cn1cc2cc(-c3ccc4nc(N5CCC(NC(C)(C)C)CC5)ccc4n3)c(O)cc2n1 [Compound 132] | > 10000 | > 10000 | > 10000 | > 10000 | > 10000 | > 10000 | > 10000 | > 10000 | > 10000 | C (C represents 1000-9999 nM) | > 10000
11 | CN(C)C1CCN(c2ccc3nc(-c4cc5cn(C)nc5cc4O)ccc3n2)CC1 [Compound 133] | 1000 to 10000 | 100 to 1000 | 1000 to 10000 | 1000 to 10000 | < 100 | 1000 to 10000 | 1000 to 10000 | 1000 to 10000 | 1000 to 10000 | B (B represents 100-1000 nM) | 1000 to 10000
12 | Cn1cc2cc(-c3ccc4nc(N5CCNCC5)ccc4n3)c(O)cc2n1 [Compound 136] | 100 to 1000 | 100 to 1000 | 100 to 1000 | 100 to 1000 | < 100 | 100 to 1000 | 1000 to 10000 | 1000 to 10000 | 1000 to 10000 | B (B represents 100-1000 nM) | 100 to 1000
13 | C[C@@H]1CC(c2ccc3nc(-c4cc5cn(C)nc5cc4O)ccc3n2)C[C@H](C)N1 (stereo partly shown) [Compound 137] | 100 to 1000 | 100 to 1000 | 100 to 1000 | 100 to 1000 | < 100 | 100 to 1000 | 1000 to 10000 | 100 to 1000 | 100 to 1000 | B (B represents 100-1000 nM) | 100 to 1000
14 | CCN1CCC(c2ccc3nc(-c4cc5cn(C)nc5cc4O)ccc3n2)CC1 [Compound 138] | 100 to 1000 | 100 to 1000 | 100 to 1000 | 100 to 1000 | < 100 | 100 to 1000 | 100 to 1000 | 100 to 1000 | 100 to 1000 | B (B represents 100-1000 nM) | 100 to 1000
15 | C[C@H]1C[C@H](c2ccc3nc(-c4cc5cn(C)nc5cc4O)ccc3n2)CCN1 [Compound 139] | 100 to 1000 | < 100 | < 100 | < 100 | < 100 | 100 to 1000 | < 100 | < 100 | < 100 | B (B represents 100-1000 nM) | < 100
16 | C[C@H]1C[C@@H](c2ccc3nc(-c4cc5cn(C)nc5cc4O)ccc3n2)CCN1 [Compound 140] | 100 to 1000 | 100 to 1000 | < 100 | < 100 | < 100 | 100 to 1000 | 100 to 1000 | < 100 | < 100 | B (B represents 100-1000 nM) | 100 to 1000
17 | Cn1cc2c(O)c(-c3cc4ccc(C5CCNCC5)nc4cn3)cc(Br)c2n1 [Compound 141] | 1000 to 10000 | 1000 to 10000 | 100 to 1000 | 100 to 1000 | 100 to 1000 | 1000 to 10000 | 1000 to 10000 | 1000 to 10000 | 1000 to 10000 | C (C represents 1000-9999 nM) | 1000 to 10000
